How the values were obtained:
[1] = biological target: Human CB2R (Cannabanoid receptor 2) (Homo sapiens (Human), UniProt P34972); test: CB-2 in vitro cAMP (HTRF) assay in HEK-293 cells; format: cell-based; details: HEK-293 cells stably transfected with human CB2R, 250 nM Forskolin, mean where tested more than once, read-out: CB-2 (HEK_cAMP) EC50
Method in brief: (§1)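 HEK-293 cells stably expressing human CB1 or CB2 plated overnight, then tested in HBSS/5 mM HEPES/0.1% BSA with 0.5 mM IBMX and forskolin (1.5 μM working dilution). Intracellular cAMP quantified by competitive HTRF immunoassay (d2-cAMP, cryptate anti-cAMP) against a cAMP standard curve; compounds as 1/3 serial dilutions from 10 mM DMSO stocks.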

[2] = biological target: Human CB1R (Cannabanoid receptor 1) (Homo sapiens (Human), UniProt P21554); test: CB-1 in vitro cAMP (HTRF) assay in HEK-293 cells; format: cell-based; details: HEK-293 cells stably transfected with human CB1R, 250 nM Forskolin, mean where tested more than once, read-out: CB-1 (HEK_cAMP) EC50
Human CB1R (Cannabanoid receptor 1), sequence (P21554 whole entry): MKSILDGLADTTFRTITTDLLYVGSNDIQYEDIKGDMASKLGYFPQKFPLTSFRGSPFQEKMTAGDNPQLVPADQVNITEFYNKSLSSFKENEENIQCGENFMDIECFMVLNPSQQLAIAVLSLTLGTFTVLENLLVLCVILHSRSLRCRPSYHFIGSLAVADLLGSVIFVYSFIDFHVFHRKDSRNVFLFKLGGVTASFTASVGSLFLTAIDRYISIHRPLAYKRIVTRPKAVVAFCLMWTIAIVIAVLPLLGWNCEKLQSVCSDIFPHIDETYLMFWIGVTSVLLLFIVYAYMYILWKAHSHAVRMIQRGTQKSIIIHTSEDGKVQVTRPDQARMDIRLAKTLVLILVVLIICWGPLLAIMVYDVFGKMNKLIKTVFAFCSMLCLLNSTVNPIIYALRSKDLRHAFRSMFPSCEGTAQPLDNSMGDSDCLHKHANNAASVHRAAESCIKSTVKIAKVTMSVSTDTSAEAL
Method in brief: as §1

Human CB2R (Cannabanoid receptor 2), sequence (P34972 whole entry): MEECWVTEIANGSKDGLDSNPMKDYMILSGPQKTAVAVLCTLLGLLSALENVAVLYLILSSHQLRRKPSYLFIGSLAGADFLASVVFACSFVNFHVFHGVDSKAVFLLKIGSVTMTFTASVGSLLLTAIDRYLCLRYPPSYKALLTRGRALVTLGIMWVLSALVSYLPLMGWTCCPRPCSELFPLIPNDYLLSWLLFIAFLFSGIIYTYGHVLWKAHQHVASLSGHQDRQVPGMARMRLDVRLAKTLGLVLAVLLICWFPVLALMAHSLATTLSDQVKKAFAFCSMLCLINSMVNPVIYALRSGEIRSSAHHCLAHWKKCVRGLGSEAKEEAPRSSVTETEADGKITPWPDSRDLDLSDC

Structure (SMILES)	EC50 [1] [nM]	EC50 [2] [nM]
O=S(=O)(CC(F)(F)F)N1CCC(c2n[nH]c3ccc(C(c4ccc(Cl)cc4)c4ccc(Cl)cc4)cc23)CC1 [Compound 53]	> 10000	49
O=C(O)c1ccc(-n2nc(C3CCN(S(=O)(=O)C(F)(F)F)CC3)c3cc(C(c4ccc(Cl)cc4)c4ccc(Cl)cc4)ccc32)cc1 [Compound 204]	> 10000	19
O=C(O)c1cccc(C(=O)N2CCC(c3nn(C4CC4)c4ccc(C(c5ccc(Cl)cc5)c5ccc(Cl)cc5)cc34)CC2)c1 [Compound 97]	> 10000	478
O=C(O)c1cccc(CN2CCC(c3nn(C4CC4)c4ccc(C(c5ccc(F)cc5)c5ccc(F)cc5)cc34)CC2)c1 [Compound 243]	> 10000	285
O=C(O)c1ccc(C(=O)N2CCC(c3c4cc(C(c5ccc(Cl)cc5)c5ccc(Cl)cc5)ccc4nn3C3CC3)CC2)cc1 [Compound 113]	> 10000	4240
COc1ccc(S(=O)(=O)N2CCC(c3c4cc(C(c5ccc(Cl)cc5)c5ccc(Cl)cc5)ccc4nn3C3CC3)CC2)cc1C(N)=O [Compound 158, 5-(4-(5-(bis(4-chlorophenyl)methyl)-2-cyclopropyl-2H-indazol-3-yl)piperidin-1-ylsulfonyl)-2-methoxybenzamide]	> 10000	3
NC(=O)c1ccccc1S(=O)(=O)N1CCC(Nc2n[nH]c3ccc(C(c4ccc(Cl)cc4)c4ccc(Cl)cc4)cc23)CC1 [Compound 121]	> 10000	375
O=C(O)c1csc(CN2CCC(c3c4cc(C(c5ccc(Cl)cc5)c5ccc(Cl)cc5)ccc4nn3C3CC3)CC2)c1 [Compound 239, 5-((4-(5-(bis(4-chlorophenyl)methyl)-2-cyclopropyl-2H-indazol-3-yl)piperidin-1-yl)methyl)thiophene-3-carboxylic acid]	> 10000	43
O=C(O)c1ccc(S(=O)(=O)N2CCC(c3c4cc(C(c5ccc(Cl)cc5)c5ccc(Cl)cc5)ccc4nn3C3CC3)CC2)cc1F [Compound 200]	> 10000	624
O=C(O)c1cccc(N2CCC(c3n[nH]c4ccc(C(c5ccc(Cl)cc5)c5ccc(Cl)cc5)cc34)CC2)c1 [Compound 212]	> 10000	1830
O=C(O)c1cccc(S(=O)(=O)N2CCC(Nc3n[nH]c4ccc(C(c5ccc(Cl)cc5)c5ccc(Cl)cc5)cc34)CC2)c1 [Compound 128]	> 10000	1220
NC(=O)CCC(=O)N1CCC(c2n[nH]c3ccc(C(c4ccc(Cl)cc4)c4ccc(Cl)cc4)cc23)CC1 [Compound 43]	> 10000	169
CS(=O)(=O)N1CCC(Nc2n[nH]c3ccc(C(c4ccc(Cl)cc4)c4ccc(Cl)cc4)cc23)CC1 [Compound 125]	> 10000	135
CC(O)Cn1nc(C2CCN(S(=O)(=O)C(F)(F)F)CC2)c2cc(C(c3ccc(Cl)cc3)c3ccc(Cl)cc3)ccc21 (stereo not shown) [Compound 202]	> 10000	169
NC(=O)c1cccc(S(=O)(=O)N2CCC(c3nn(C4CC4)c4ccc(C(c5ccc(Cl)cc5)c5ccc(Cl)cc5)cc34)CC2)c1 [Compound 94]	> 10000	65
O=S(=O)(N1CCC(c2nn(-c3ccc(F)cc3)c3ccc(C(c4ccc(F)cc4)c4ccc(Cl)cc4)cc23)CC1)C(F)(F)F (stereo not shown) [Compound 50]	> 10000	59
CC(C)(O)Cn1nc(C2CCN(S(=O)(=O)C(F)(F)F)CC2)c2cc(C(c3ccc(Cl)cc3)c3ccc(Cl)cc3)ccc21 [Compound 201]	> 10000	2640
NC(=O)Cn1nc(N2CCN(S(=O)(=O)C(F)(F)F)CC2)c2cc(C(c3ccc(Cl)cc3)c3ccc(Cl)cc3)ccc21 [Compound 19]	> 10000	84
O=C(NC1CCCC1)N1CCC(c2n[nH]c3ccc(C(c4ccc(Cl)cc4)c4ccc(Cl)cc4)cc23)CC1 [Compound 263]	2330	234
CC(C)(C)OC(=O)N1CCC(c2n[nH]c3ccc(C(c4ccc(Cl)cc4)c4ccc(Cl)cc4)cc23)CC1 [Compound 39]	> 10000	144
COc1cc(S(=O)(=O)N2CCC(c3c4cc(C(c5ccc(Cl)cc5)c5ccc(Cl)cc5)ccc4nn3C3CC3)CC2)ccc1C(N)=O [Compound 146, 4-(4-(5-(bis(4-chlorophenyl)methyl)-2-cyclopropyl-2H-indazol-3-yl)piperidin-1-ylsulfonyl)-2-methoxybenzamide]	> 10000	7
O=C(O)c1cccc(CN2CCC(c3c4cc(C(c5ccc(Cl)cc5)c5ccc(Cl)cc5)ccc4nn3C3CC3)CC2)c1 [Compound 257, 3-((4-(5-(bis(4-chlorophenyl)methyl)-2-cyclopropyl-2H-indazol-3-yl)piperidin-1-yl)methyl)benzoic acid]	> 5000	13

Structure (SMILES)	EC50 [1] [nM]	EC50 [2] [nM]
NC(=O)c1ccc(S(=O)(=O)N2CCC(c3c4cc(C(c5ccc(Cl)cc5)c5ccc(Cl)cc5)ccc4nn3C3CC3)CC2)cc1 [Compound 118, 4-(4-(5-(bis(4-chlorophenyl)methyl)-2-cyclopropyl-2H-indazol-3-yl)piperidin-1-ylsulfonyl)benzamide]	> 10000	4
O=C(O)c1ccccc1S(=O)(=O)N1CCC(c2n[nH]c3ccc(C(c4ccc(Cl)cc4)c4ccc(Cl)cc4)cc23)CC1 [Compound 34]	7500	6030
NC(=O)c1ccccc1S(=O)(=O)N1CCC(c2c3cc(C(c4ccc(Cl)cc4)c4ccc(Cl)cc4)ccc3nn2C2CC2)CC1 [Compound 139]	> 10000	202
O=C(O)COc1cccc(N2CCC(c3n[nH]c4ccc(C(c5ccc(Cl)cc5)c5ccc(Cl)cc5)cc34)CC2)c1 [Compound 216]	> 10000	1280
O=C(O)Cc1cccc(N2CCC(c3nn(C4CC4)c4ccc(C(c5ccc(Cl)cc5)c5ccc(Cl)cc5)cc34)CC2)c1 [Compound 180]	> 10000	6550
O=C(O)c1ccc(CS(=O)(=O)N2CCC(c3nn(C4CC4)c4ccc(C(c5ccc(Cl)cc5)c5ccc(Cl)cc5)cc34)CC2)s1 [Compound 236]	> 10000	68
NC(=O)CS(=O)(=O)N1CCC(c2c3cc(C(c4ccc(Cl)cc4)c4ccc(Cl)cc4)ccc3nn2C2CC2)CC1 [Compound 137]	> 10000	158
NC(=O)CCC(=O)N1CCC(c2nn(C3CC3)c3ccc(C(c4ccc(Cl)cc4)c4ccc(Cl)cc4)cc23)CC1 [Compound 92]	> 10000	29
COc1cccc(S(=O)(=O)N2CCC(Nc3n[nH]c4ccc(C(c5ccc(Cl)cc5)c5ccc(Cl)cc5)cc34)CC2)c1 [Compound 101]	> 10000	293
NC(=O)c1ccccc1S(=O)(=O)N1CCC(c2n[nH]c3ccc(C(c4ccc(Cl)cc4)c4ccc(Cl)cc4)cc23)CC1 [Compound 40]	10200	297
COC(=O)Cn1nc(N2CCN(S(=O)(=O)C(F)(F)F)CC2)c2cc(C(c3ccc(Cl)cc3)c3ccc(Cl)cc3)ccc21 [Compound 20]	> 10000	165
O=C(O)COc1ccc(N2CCC(c3nn(C4CC4)c4ccc(C(c5ccc(Cl)cc5)c5ccc(Cl)cc5)cc34)CC2)cc1 [Compound 192]	> 10000	7080
COc1ccc(S(=O)(=O)N2CCC(c3c4cc(C(c5ccc(Cl)cc5)c5ccc(Cl)cc5)ccc4nn3C3CC3)CC2)cc1C(=O)O [Compound 164, 5-(4-(5-(bis(4-chlorophenyl)methyl)-2-cyclopropyl-2H-indazol-3-yl)piperidin-1-ylsulfonyl)-2-methoxybenzoic acid]	> 10000	26
NC(=O)c1cccc(S(=O)(=O)N2CCC(c3n[nH]c4ccc(C(c5ccc(Cl)cc5)c5ccc(Cl)cc5)cc34)CC2)c1 [Compound 66]	> 10000	160
O=C(OCc1ccccc1)N1CCC(c2n[nH]c3ccc(C(c4ccc(Cl)cc4)c4ccc(Cl)cc4)cc23)CC1 [Compound 265]	> 10000	208
NC(=O)c1cccc(S(=O)(=O)N2CCC(c3c4cc(C(c5ccc(Cl)cc5)c5ccc(Cl)cc5)ccc4nn3C3CC3)CC2)c1 [Compound 140, 3-(4-(5-(bis(4-chlorophenyl)methyl)-2-cyclopropyl-2H-indazol-3-yl)piperidin-1-ylsulfonyl)benzamide]	> 10000	11
Cc1ccc(C(c2ccc(Cl)cc2)c2ccc3c(c2)c(C2CCN(Cc4cccc(C(=O)O)c4)CC2)nn3C2CC2)cc1 (stereo not shown) [Compound 247]	> 10000	20
O=C(O)c1ccc(S(=O)(=O)N2CCC(c3c4cc(C(c5ccc(Cl)cc5)c5ccc(Cl)cc5)ccc4nn3C3CC3)CC2)cn1 [Compound 160, 5-(4-(5-(bis(4-chlorophenyl)methyl)-2-cyclopropyl-2H-indazol-3-yl)piperidin-1-ylsulfonyl)picolinic acid]	4400	5
O=S(=O)(N1CCN(c2nn(S(=O)(=O)C(F)(F)F)c3ccc(C(c4ccc(Cl)cc4)c4ccc(Cl)cc4)cc23)CC1)C(F)(F)F [Compound 29]	> 10000	1490
O=C(O)c1ccc(CN2CCC(c3nn(C4CC4)c4ccc(C(c5ccc(Cl)cc5)c5ccc(Cl)cc5)cc34)CC2)s1 [Compound 254]	> 10000	16
NC(=O)c1cccc(S(=O)(=O)N2CCC(c3nn(CCO)c4ccc(C(c5ccc(Cl)cc5)c5ccc(Cl)cc5)cc34)CC2)c1 [Compound 82]	> 10000	82
NC(=O)c1ccc(S(=O)(=O)N2CCC(c3nn(CCO)c4ccc(C(c5ccc(Cl)cc5)c5ccc(Cl)cc5)cc34)CC2)cc1 [Compound 69]	> 10000	26
